The source of these data is patent publication US7691876B2, “Heterobicyclic amide compounds” (Hoffmann-La Roche Inc., priority 2006, dated 2010).

The target in this assay is T1, cholesteryl ester transfer protein (CETP) (Homo sapiens, UniProt P11597).
T1 construct: the source of CETP was human lipoprotein-deprived serum (LPDS); from tissue; host or cells: human lipoprotein-deprived serum (LPDS)
T1 sequence (P11597 18-493): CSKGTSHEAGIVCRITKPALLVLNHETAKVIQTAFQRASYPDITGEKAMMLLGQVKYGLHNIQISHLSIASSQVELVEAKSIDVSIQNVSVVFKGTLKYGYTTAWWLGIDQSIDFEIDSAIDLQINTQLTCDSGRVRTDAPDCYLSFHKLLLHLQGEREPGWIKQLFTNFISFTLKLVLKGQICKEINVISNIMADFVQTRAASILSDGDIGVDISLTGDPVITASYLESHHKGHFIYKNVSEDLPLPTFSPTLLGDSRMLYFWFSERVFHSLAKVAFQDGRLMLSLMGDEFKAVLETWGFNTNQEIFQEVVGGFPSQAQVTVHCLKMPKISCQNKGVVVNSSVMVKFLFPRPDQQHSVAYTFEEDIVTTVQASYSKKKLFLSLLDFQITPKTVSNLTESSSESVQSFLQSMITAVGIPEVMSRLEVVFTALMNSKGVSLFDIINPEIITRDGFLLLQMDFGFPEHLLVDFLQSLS
Briefly: CETP activity SPA assay in the presence of plasma (human lipoprotein-deprived serum as source of CETP). Type of assay: biochemical. To be noted: source of CETP was human lipoprotein-deprived serum (LPDS), transfer of radiolabeled cholesteryl ester from HDL donor to biotin-labeled LDL acceptor particles. The procedure: Activity of CETP inhibitors was determined using a buffer assay system. Partially purified CETP transferred radiolabeled cholesteryl ester from HDL donor particles to biotin-labeled LDL acceptor particles. The reaction was stopped by addition of streptavidin-coupled scintillation proximity assay (SPA) beads. These beads captured the biotinylated acceptor particles and transferred radioactivity was measured. The assay system was purchased and performed according to manufacturer's recommendations (Amersham Biosciences). Inhibitory activity of compounds was determined as percentage of positive control activity containing CETP together with donor and acceptor particles. Serial dilution of compounds was performed in order to determine the IC50 values.
Activity of the compounds was subsequently measured in the presence of plasma using the same assay as described above except that the source of CETP was human lipoprotein-deprived serum (LPDS). Inhibitory activity of compounds was determined as percentage of positive control activity containing all the assay components except compound. Serial dilution of compounds was performed in order to determine the IC50 values.

What is called IC50 is the concentration needed to halve the response being measured. Turning to `Cc1cc2cc[nH]c2c(C(=O)N(CCc2ccc(Cl)c(Cl)c2)Cc2ccc(C(C)(C)C)cc2)n1` [Compound 3.14, 5-methyl-1H-pyrrolo[2,3-c]pyridine-7-carboxylic acid (4-tert-butyl-benzyl)-[2-(3,4-dichloro-phenyl)-ethyl]-amide], the half-inhibitory concentration (IC50) came to 141 nM.
Regarding `CC(C)(C)c1ccc(CN(CCc2ccc(F)cc2)C(=O)c2ncc(F)c3cc[nH]c23)cc1` [Compound 3.15, 4-fluoro-1H-pyrrolo[2,3-c]pyridine-7-carboxylic acid (4-tert-butyl-benzyl)-[2-(4-fluoro-phenyl)-ethyl]-amide], the half-maximal inhibitory concentration (IC50) turned out to be 437 nM.
Consider `CC(C)(C)c1ccc(CN(CCc2cccc(C(F)(F)F)c2)C(=O)c2nc(Cl)cc3cc[nH]c23)cc1` [Compound 3.22, 5-chloro-1H-pyrrolo[2,3-c]pyridine-7-carboxylic acid (4-tert-butyl-benzyl)-[2-(3-trifluoromethyl-phenyl)-ethyl]-amide], for which the IC50 was determined as 175 nM.
